# Biological target: T1, NR2F6 (Homo sapiens, UniProt P10588)
# T1 construct: expressed in transfected cells; also transient transfection
# T1 sequence (P10588 1-404): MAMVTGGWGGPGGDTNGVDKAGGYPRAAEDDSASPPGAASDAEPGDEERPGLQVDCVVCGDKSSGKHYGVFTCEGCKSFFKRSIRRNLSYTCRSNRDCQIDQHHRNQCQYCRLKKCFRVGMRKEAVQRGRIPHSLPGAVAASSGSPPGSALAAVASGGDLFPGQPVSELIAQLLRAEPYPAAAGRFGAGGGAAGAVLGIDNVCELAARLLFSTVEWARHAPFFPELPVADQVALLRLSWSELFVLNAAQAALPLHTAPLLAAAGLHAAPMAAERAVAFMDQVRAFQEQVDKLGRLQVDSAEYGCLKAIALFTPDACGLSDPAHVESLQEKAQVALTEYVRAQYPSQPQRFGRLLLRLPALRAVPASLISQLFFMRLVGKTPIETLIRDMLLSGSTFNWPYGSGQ
# Experiment: NR2F6 agonist screening, Firefly signal cmpd/DMSO
# Type: cell-based
# Conditions: for Firefly/Renilla (NR2F6 stable, clone F4): ratio Firefly/Renilla; for Firefly, NR2F6 stable (clone F4)/pGL4: ratio of Firefly in NR2F6 stable clone F4 to pGL4
# [1] = C11 analogs follow set (Tables 2-10)
Compound,"Firefly, cmpd/DMSO repeat 1 [1]","Firefly, cmpd/DMSO repeat 2 [1]","Firefly, cmpd/DMSO repeat 1 (Table 9)","Firefly, cmpd/DMSO repeat 2 (Table 9)",other results
COc1ccc2oc(=O)c(S(=O)(=O)c3ccccc3)cc2c1 [Compound C206],2.1,1.8,–,–,–
COc1ccc(S(=O)(=O)c2cc3cc(OC)ccc3oc2=O)cc1 [Compound C207],2.5,2.8,–,–,–
COc1ccc2oc(=O)c(S(=O)(=O)c3ccc(Br)cc3)cc2c1 [Compound C208],0.8,0.9,–,–,–
COc1ccc2oc(=O)c(S(=O)(=O)c3ccc(C(C)(C)C)cc3)cc2c1 [Compound C209],3.1,4.2,–,–,"Firefly/Renilla (NR2F6 stable, clone F4) (Table 13): 3.6; Firefly, NR2F6 stable (clone F4)/pGL4 (Table 13): 3.1; Firefly, cmpd/DMSO repeat 1 (Table 13): 3.1; Firefly, cmpd/DMSO repeat 2 (Table 13): 4.2"
O=c1oc2ccc([N+](=O)[O-])cc2cc1S(=O)(=O)c1ccccc1 [Compound C210],22.8,14.3,–,–,"Firefly/Renilla (NR2F6 stable, clone F4) (Table 13): 1.5; Firefly, NR2F6 stable (clone F4)/pGL4 (Table 13): 8.2; Firefly, cmpd/DMSO repeat 1 (Table 13): 22.8; Firefly, cmpd/DMSO repeat 2 (Table 13): 14.3"
Cc1ccc(S(=O)(=O)c2cc3cc([N+](=O)[O-])ccc3oc2=O)cc1 [Compound C211],5.8,17.7,–,–,–
O=c1oc2ccc(F)cc2cc1S(=O)(=O)c1ccccc1 [Compound C212],1.7,1.9,–,–,–
O=c1oc2ccc(F)cc2cc1S(=O)(=O)c1ccc(F)cc1 [Compound C213],14.0,13.6,–,–,"Firefly/Renilla (NR2F6 stable, clone F4) (Table 13): 1.6; Firefly, NR2F6 stable (clone F4)/pGL4 (Table 13): 9.6; Firefly, cmpd/DMSO repeat 1 (Table 13): 14.0; Firefly, cmpd/DMSO repeat 2 (Table 13): 13.6"
COc1ccc(S(=O)(=O)c2cc3cc(F)ccc3oc2=O)cc1 [Compound C214],1.9,1.9,–,–,–
O=c1oc2ccc(F)cc2cc1S(=O)(=O)c1ccc(Br)cc1 [Compound C215],11.6,13.8,–,–,–
CC(C)(C)c1ccc(S(=O)(=O)c2cc3cc(F)ccc3oc2=O)cc1 [Compound C216],1.3,1.0,–,–,–
Cc1cc(S(=O)(=O)c2cc3cc(F)ccc3oc2=O)ccc1F [Compound C217],1.8,1.4,–,–,–
O=c1oc2ccc(F)cc2cc1S(=O)(=O)c1ccc(Cl)cc1 [Compound C218],18.2,19.1,–,–,"Firefly/Renilla (NR2F6 stable, clone F4) (Table 12): 1.7; Firefly, NR2F6 stable (clone F4)/pGL4 (Table 12): 9.5; Firefly, cmpd/DMSO repeat 1 (Table 12): 18.2; Firefly, cmpd/DMSO repeat 2 (Table 12): 19.1"
O=c1oc2ccc(Br)cc2cc1S(=O)(=O)c1ccccc1F [Compound C219],1.3,2.5,–,–,–
O=c1oc2ccc(Cl)cc2cc1S(=O)(=O)c1ccccc1F [Compound C220],10.4,6.5,–,–,"Firefly/Renilla (NR2F6 stable, clone F4) (Table 13): 1.1; Firefly, NR2F6 stable (clone F4)/pGL4 (Table 13): 6.2; Firefly, cmpd/DMSO repeat 1 (Table 13): 10.4; Firefly, cmpd/DMSO repeat 2 (Table 13): 6.5"
COc1ccc2oc(=O)c(S(=O)(=O)c3ccccc3F)cc2c1 [Compound C221],1.3,0.9,–,–,–
COc1ccc2oc(=O)c(S(=O)(=O)c3cccc(Cl)c3)cc2c1 [Compound C222],4.5,3.7,–,–,"Firefly/Renilla (NR2F6 stable, clone F4) (Table 13): 2.0; Firefly, NR2F6 stable (clone F4)/pGL4 (Table 13): 3.6; Firefly, cmpd/DMSO repeat 1 (Table 13): 4.5; Firefly, cmpd/DMSO repeat 2 (Table 13): 3.7"
Cc1cc(S(=O)(=O)c2cc3cc(Br)ccc3oc2=O)ccc1F [Compound C223],4.5,5.1,–,–,–
Cc1cc(S(=O)(=O)c2cc3cc(Cl)ccc3oc2=O)ccc1F [Compound C224],6.6,11.4,–,–,–
COc1ccc2oc(=O)c(S(=O)(=O)c3ccc(F)c(C)c3)cc2c1 [Compound C225],1.5,3.1,–,–,–
COc1cccc(S(=O)(=O)c2cc3cccc(OC)c3oc2=O)c1 [Compound C226],–,–,1.1,1.0,–
COc1cccc2cc(S(=O)(=O)c3cc(C)cc(C)c3)c(=O)oc12 [Compound C227],–,–,1.0,1.3,–
COc1cccc2cc(S(=O)(=O)c3ccc(C)c(Cl)c3)c(=O)oc12 [Compound C228],–,–,1.0,1.3,–
COc1cccc2cc(S(=O)(=O)c3cc(F)cc(F)c3)c(=O)oc12 [Compound C229],–,–,2.9,1.8,–

Compound,"Firefly, cmpd/DMSO repeat 1 [1]","Firefly, cmpd/DMSO repeat 2 [1]","Firefly, cmpd/DMSO repeat 1 (Table 9)","Firefly, cmpd/DMSO repeat 2 (Table 9)",other results
CCOc1cccc2cc(S(=O)(=O)c3cc(F)cc(F)c3)c(=O)oc12 [Compound C230],–,–,12.5,8.3,"Firefly/Renilla (NR2F6 stable, clone F4) (Table 12): 2.5; Firefly, NR2F6 stable (clone F4)/pGL4 (Table 12): 6.5; Firefly, cmpd/DMSO repeat 1 (Table 12): 12.5; Firefly, cmpd/DMSO repeat 2 (Table 12): 8.3"
COc1cccc2cc(S(=O)(=O)c3ccc(C)cc3)c(=O)oc12 [Compound C231],–,–,0.7,0.9,–
COc1ccc(S(=O)(=O)c2cc3cccc(OC)c3oc2=O)cc1 [Compound C232],–,–,1.0,0.9,–
COc1cccc2cc(S(=O)(=O)c3ccc(Br)cc3)c(=O)oc12 [Compound C233],–,–,2.8,2.1,–
COc1cccc2cc(S(=O)(=O)c3ccc(C(C)(C)C)cc3)c(=O)oc12 [Compound C234],–,–,2.2,1.8,–
CCOc1cccc2cc(S(=O)(=O)c3ccc(C)cc3)c(=O)oc12 [Compound C236],–,–,4.4,4.9,–
CCOc1cccc2cc(S(=O)(=O)c3ccc(F)cc3)c(=O)oc12 [Compound C237],–,–,3.5,2.9,–
CCOc1cccc2cc(S(=O)(=O)c3ccc(Br)cc3)c(=O)oc12 [Compound C239],–,–,1.4,2.2,–
CCOc1cccc2cc(S(=O)(=O)c3ccc(C(C)(C)C)cc3)c(=O)oc12 [Compound C240],–,–,1.5,0.9,–
COc1cccc2cc(S(=O)(=O)c3ccc(C(C)C)cc3)c(=O)oc12 [Compound C241],–,–,2.1,2.7,–
COc1cccc2cc(S(=O)(=O)c3ccc(C)c(C)c3)c(=O)oc12 [Compound C242],–,–,1.1,1.1,–
CCOc1cccc2cc(S(=O)(=O)c3ccc(C)c(C)c3)c(=O)oc12 [Compound C243],–,–,2.0,3.3,–
CCOc1cccc2cc(S(=O)(=O)c3ccc(Cl)cc3)c(=O)oc12 [Compound C244],–,–,9.7,14.1,–
COc1cccc2cc(S(=O)(=O)c3ccc(Cl)c(Cl)c3)c(=O)oc12 [Compound C245],–,–,1.9,1.3,–
CCOc1cccc2cc(S(=O)(=O)c3ccc(Cl)c(Cl)c3)c(=O)oc12 [Compound C246],–,–,7.4,6.5,–
COc1ccc(S(=O)(=O)c2cc3cccc(OC)c3oc2=O)cc1OC [Compound C247],–,–,2.2,1.6,–
CCOc1cccc2cc(S(=O)(=O)c3ccc(OC)c(OC)c3)c(=O)oc12 [Compound C248],–,–,8.6,4.3,"Firefly/Renilla (NR2F6 stable, clone F4) (Table 12): 2.8; Firefly, NR2F6 stable (clone F4)/pGL4 (Table 12): 4.6; Firefly, cmpd/DMSO repeat 1 (Table 12): 8.6; Firefly, cmpd/DMSO repeat 2 (Table 12): 4.3"
COc1ccc(OC)c(S(=O)(=O)c2cc3cccc(OC)c3oc2=O)c1 [Compound C249],–,–,1.4,1.5,–
COc1cccc2cc(S(=O)(=O)c3ccc(F)c(Cl)c3)c(=O)oc12 [Compound C250],–,–,1.2,1.8,–
CCOc1cccc2cc(S(=O)(=O)c3ccc(F)c(Cl)c3)c(=O)oc12 [Compound C251],–,–,2.1,1.9,–
CCOc1ccc(S(=O)(=O)c2cc3cccc(OCC)c3oc2=O)cc1 [Compound C252],–,–,3.2,2.4,–
COc1cccc2cc(S(=O)(=O)c3ccccc3F)c(=O)oc12 [Compound C253],–,–,2.5,2.7,–
CCOc1cccc2cc(S(=O)(=O)c3ccccc3F)c(=O)oc12 [Compound C254],–,–,7.6,5.1,"Firefly/Renilla (NR2F6 stable, clone F4) (Table 12): 2.4; Firefly, NR2F6 stable (clone F4)/pGL4 (Table 12): 4.4; Firefly, cmpd/DMSO repeat 1 (Table 12): 7.6; Firefly, cmpd/DMSO repeat 2 (Table 12): 5.1"
COc1cccc2cc(S(=O)(=O)c3cccc(Cl)c3)c(=O)oc12 [Compound C255],–,–,1.5,1.5,–
